# Experimental data reported in patent publication US20150025143A1, “BETA-HYDROXY-BETA-METHYLBUTYRIC ACID FOR IMPROVING GLUCOSE TOLERANCE” (ABBOTT LABORATORIES, priority 2012, published 2015).
# Assays:
# C57BL/6J mice = assay: oral glucose tolerance after nine weeks of supplemented feeding and exercise; format: in vivo; conditions: 3.4 mg/g of pediatric nutritional supplement, fed nine weeks with exercise; oral glucose 2 g/Kg; compared to rodent pellet feed control, pediatric nutritional supplement control and both leucine groups (5 and 10 mg/g); FIG. 1
# Procedure: In this Example, the effect of (1) HMB and (2) leucine on muscle glucose tolerance was analyzed in an in vivo study.
# C57BL/6J mice (Charles River Laboratories, Wilmington Mass.), 21 days post-weaning, were fed either a commercially available pediatric nutritional supplement supplemented with either (1) calcium HMB or (2) leucine, and required to exercise, for nine weeks. […]
# Following the nine weeks, the mice were kept overnight for fasting and body weight was recorded. […] Before glucose administration, the blood glucose was measured by tail snip using one-touch ultra Glucometer and glucose strips.
# All test groups were orally administered the glucose solution at a concentration of 2 g/Kg body weight. […] After oral glucose administration, blood glucose levels were analyzed at different time points (i.e., 15, 30, 60, 90, and 120 minutes) using Glucometer and glucose strips.
# [1] = system: Spragley-Dawley (SD) rats; assay: effect of an acute oral dose given before a glucose load on the blood glucose spike (lowering glycemic index); format: in vivo; conditions: given 30 minutes before glucose load of approximately 2 g/kg, FIG. 2
# Procedure: In this Example, the effect of calcium HMB on lowering glycemic index was evaluated in an in vivo study. Particularly, an acute oral dose of calcium HMB was evaluated to determine whether, if given prior to a glucose load, the dose was able to blunt the initial glucose spike.
# Spragley-Dawley (SD) rats (21 days post weaning) (n=7 or 8) were fed an oral dose of calcium HMB at a concentration of: 100 mg/kg (mpk), 300 mpk or 1000 mpk. After thirty minutes, the rats were then orally fed a glucose load consisting of a glucose solution having a concentration of approximately 2 g/kg body weight. A control group (n=4) was not fed the oral dose of calcium HMB prior to the glucose load.
# Blood glucose levels of the rats were measured by tail snip using one-touch ultra Glucometer and glucose strips at different time points (0, 15, 30, 45, 60, 90, and 120 minutes).
structure (smiles),measurement,setting,value
"CC(C)(O)CC(=O)O.[Ca] [Calcium HMB, calcium beta-hydroxy-beta-methylbutyric acid]",glucose tolerance (blood glucose after oral glucose administration),C57BL/6J mice,improved glucose tolerance
same,glucose spike at 15 minutes post dosing,[1]; 1000 mpk oral,significantly reduced glucose spike
same,glucose spike at early time points,[1]; high oral doses,significantly blunted glucose spike
